Results from patent US9987276B2 (Celgene CAR LLC, priority 2008, dated 2018).
Where two headings read alike, the source gives them in different places.

Assays:
[1] = target: BTK (Canis lupus familiaris, UniProt A0A8I3P3Z9); assay: Dog primary B cell covalent probe occupancy in vitro; assay type: cell-based; conditions: canine PBMCs, one hour at 37° C., probe I-215 ELISA
Description: (§1) In order to determine the amount of free BTK in cell or tissue lysates, an ELISA protocol was employed that utilizes a biotinylated probe compound that binds only to free, unoccupied BTK. The conjugated biotin is captured on a streptavidin-coated ELISA plate and detected with a mouse anti-BTK antibody (Becton Dickinson, Franklin Lakes, N.J., USA) and a secondary goat anti-mouse HRP antibody (Zymed, South San Francisco, Calif., USA).
(§2) All samples were prepared with equal concentrations of Biorad lysis buffer (Hercules, Calif., USA), 0.5% bovine serum albumin in PBS with 0.05% Tween-20 to give a final concentration of 1 μM I-215. Samples were incubated in a mixing plate for 1 hr at room temperature while shaking to allow probe compound I-215 to bind to free BTK. After incubation with I-215, samples were added to a washed, streptavidin-coated ELISA plate (Pierce, Rockford, Ill., USA) and incubated for 1 hr at room temperature while shaking. […] TMB was added to the plate, and OD650 was monitored until reaching 1 OD unit. […] The plate was analyzed using Gen 5 software, and a 4 Parameter Logistic curve was employed to quantitate samples. […]
Canine whole blood (30 mL) was diluted to 50 mL total with 1×PBS and layered on top of Histopaque-1077 (Sigma Aldrich). […] The supernatant was analyzed as described in Example 283 using I-215. […]

[2] = test system: TI-2 independent B cell activation; assay: In vivo thymus-independent (TI-2) B cell activation; conditions: C57/B6 mice, 100 mg/kg daily day 0 through 5, TNP-Ficoll, serum day 6
[3] = target: EGFR-WT (Homo sapiens (Human), UniProt P00533); assay: Omnia assay for potency assessment against EGFR (WT)
[4] = target: T1, BTK (Homo sapiens (Human), UniProt Q06187); assay: Mass spectrometry for BTK (intact protein); assay type: binding; conditions: 1 hr, 10× fold excess of compound
Description: Intact BTK was incubated for 1 hr at a 10× fold excess of I-7 to protein. Aliquots (2 μl) of the samples were diluted with 10 μl of 0.1% TFA prior to micro C4 ZipTipping directly onto the MALDI target using Sinapinic acid as the desorption matrix (10 mg/ml in 0.1% TFA:Acetonitrile 20:80).

[5] = target: EGFR-T790M/L858R (Homo sapiens (Human), UniProt P00533, L858R/T790M); assay: Omnia assay for potency assessment against EGFR (T790M/L858R); conditions: read-out: EGFR (T790M/L858R); EGFR mutant T790M/L858R
[6] = target: ITK (Homo sapiens (Human), UniProt Q08881); assay: Omnia assay for potency assessment against active forms of ITK kinase; assay type: biochemical; conditions: [ITK]=10 nM, [ATP]=25, [Y6-Sox]=10 μM; read-out: ITK Inhibition
Description: [ITK]=10 nM, [ATP]=25 [Y6-Sox]=10 μM (ATP KMapp=33 μM).

[7] = target: T1, BTK; assay: Human primary B cell covalent probe occupancy in vitro; assay type: cell-based; conditions: human primary B cells, 1 h at 37° C., probe I-215 ELISA
Description: as §1, §2
Human primary B cells were isolated as described in Example 256, then resuspended in RPMI media (10% serum). The compound to be analyzed was added at a 1:1000 dilution to media. […] The supernatant was analyzed as described in Example 283 using I-215.

[8] = target: T1, BTK; assay: Omnia assay for potency assessment against BTK; assay type: biochemical; conditions: for IC50: [BTK]=5 nM, Omnia assay, read-out: BTK Inhibition (IC50)
Description: The modified BTK-optimized reagent conditions for the above protocol are:
[BTK]=5 nM, [ATP]=[…], [Y5-Sox]=[…] (ATP KMapp˜[…]).

[9] = target: T1, BTK; assay: BTK Ramos cellular assay (PLCγ2 phosphorylation); assay type: cell-based; conditions: Ramos cells, 1 hour compound, anti-IgM stimulation, p-PLCγ2; read-out: BTK Inhibition (IC50), BTK Ramos cellular inhibition
[10] = target: EGFR T790M (Homo sapiens (Human), UniProt P00533, T790M); assay: EGFR mutant T790M inhibition assay; assay type: biochemical
Description: The Omnia Assay Protocol for potency assessment against EGFR is performed as described in Example 251 above except that the EGFR-WT- and EGFR T790M/L858R-modified optimized reagent conditions are: […]

[11] = PG-PS arthritis model; assay type: in vivo; conditions: female Lewis rats, oral gavage daily through day 22
Description: On day 0, female Lewis rats received an intraperitoneal (IP) bolus of peptidoglycan-polysaccharide (PG-PS) in an amount of 15 μg/g rat body weight. Baseline control rats received an IP bolus of PBS. The vehicle and treatment groups were dosed via oral gavage just prior to PG-PS administration. Treatment with vehicle and compound continued each day through day 22. Maximal lateral ankle width measurements of both rear limbs were collected with a caliper throughout the study. On day 23, study was terminated and the final change in ankle swelling was calculated and compared to vehicle controls.

[12] = target: T1, BTK; assay: BTK occupancy from in vitro samples by ELISA (Ramos cells); assay type: cell-based; conditions: ELISA with probe I-215
Description: as §1
All samples were prepared with equal concentrations of Biorad lysis buffer (Hercules, Calif., USA), 0.5% bovine serum albumin in PBS with 0.05% Tween-20 to give a final concentration of 1 μM I-215. Samples were incubated in a mixing plate for 1 hr at room temperature while shaking to allow probe compound I-215 to bind to free BTK. After incubation with I-215, samples were added to a washed, streptavidin-coated ELISA plate (Pierce, Rockford, Ill., USA) and incubated for 1 hr at room temperature while shaking. The plate was then washed with PBS containing 0.05% Tween-20 using an automatic plate washer. Anti-BTK antibody was prepared at 1:1000 dilution in 0.5% BSA in PBS (0.05% Tween-20) and added to the ELISA plate. The plate was incubated for 1 hr at room temperature while shaking. The plate was washed as described above and the secondary HRP antibody was prepared at 1:5000 dilution in 0.5% BSA in PBS (0.05% Tween-20). The plate was incubated and washed as described above. TMB was added to the plate, and OD650 was monitored until reaching 1 OD unit. The reaction was then stopped with addition of H2SO4. The plate was analyzed using Gen 5 software, and a 4 Parameter Logistic curve was employed to quantitate samples. Recombinant BTK (Invitrogen, Carlsbad, Calif., USA) was used for the standard curve.
A concentration designated as “A” is greater than 1 nM; a concentration designated as “B” is greater than 10 nM; and a concentration designated as “C” is greater than 50 nM.

[13] = test system: Human naïve B cells; assay: Human primary B cell proliferation assay; assay type: cell-based
Description: Human naïve B cells were purified from 100 mL whole blood using a MACS purification kit designed to isolate CD19+, IgD+ cells by negative selection. Purified naïve B cells were resuspended in RPMI complete and stimulated with 5 μg/ml α-IgM for 72 hours. ^3H-Thymidine was included in the culture media for the final 16 h, cells were harvested and ^3H incorporation measured. Inhibition of B cell proliferation correlates with inhibition of BTK substrate phosphorylation after α-IgM stimulation.

[14] = target: ERBB1 (Homo sapiens (Human), UniProt P00533); assay: Z'-LYTE kinase inhibition, ErbB1; assay type: biochemical
Description: (§3) Compounds of the present invention were assayed as inhibitors of one or more of ErbB1, ErbB2, and/or ErbB4 in a manner substantially similar to the method described by Invitrogen Corp (Invitrogen Corporation, 1600 Faraday Avenue, Carlsbad, Calif., CA; http://www.invitrogen.com/downloads/Z-LYTE_Brochure_1205.pdf) using the Z'-LYTE™ biochemical assay procedure or similar biochemical assay. The Z'-LYTE™ biochemical assay employs a fluorescence-based, coupled-enzyme format and is based on the differential sensitivity of phosphorylated and non-phosphorylated peptides to proteolytic cleavage.

[15] = target: ERBB4 (HER4) (Homo sapiens (Human), UniProt Q15303); assay: Z'-LYTE kinase inhibition, ErbB4; assay type: biochemical
Description: as §3

[16] = target: JAK3 kinase (Homo sapiens (Human), UniProt P52333); assay: Mass spectrometry for Janus-3 kinase (JAK3); assay type: binding; conditions: 3 hrs at 10× excess, tryptic digest
Description: JAK3 kinase (33 pmols; Invitrogen) was incubated with (I-7) (327 pmols) for 3 hrs at 10× excess prior to tryptic digestion. Iodoacetamide was used as the alkylating agent after compound incubation. For tryptic digests a 5 ul aliquot (5.5 pmols) was diluted with 15 ul of 0.1% TFA prior to micro C18 Zip Tipping directly onto the MALDI target using alpha cyano-4-hydroxy cinnamic acid as the matrix (5 mg/ml in 0.1% TFA:Acetonitrile 50:50).
As depicted in FIG. 11, the expected peptide ([…]) to be modified was immediately evident as the largest peak at MH+ of 1725.88. This is the mass to be expected when compound I-7, with an adduct mass of 345.16, is added to the peptide mass of 1380.70. […] There was also evidence for a number of other modified peptides, however, their signals were low.
To further verify the presence of the modified peptides with compound I-7, the peptides at MH+ of 1725.88 and 1118.55 were subjected to PSD (MS/MS) analysis. A correlational analysis with the homosapien database identified the correct peptides as being modified by I-7.
For tryptic digests the instrument was set in Reflectron mode with a pulsed extraction setting of 2200. Calibration was done using the Laser Biolabs Pep Mix standard ([…], 1296.69, 1672.92, 2093.09, 2465.20). […]

[17] = target: Erbb4 kinase domain (Homo sapiens (Human), UniProt Q15303); assay: Mass spectrometry for ERBB4; assay type: binding; conditions: 60 minutes at 10-fold excess of compound
Description: Erbb4 kinase domain (Upstate) was incubated with compound for 60 minutes at 10-fold excess of compound I-4 and I-11 to protein. 1 μl aliquots of the samples (total volume of 4.24 ul) were diluted with 10 μl of 0.1% TFA prior to micro C4 ZipTipping directly onto the MALDI target using Sinapinic acid as the desorption matrix (10 mg/ml in 0.1% TFA:Acetonitrile 50:50). For intact protein mass measurement the instrument was set in Linear mode using a pulsed extraction setting of 16,952 for the myoglobin standard used to calibrate the instrument (Shimadzu Axima TOF^2).
Intact ErbB4 protein occurs at MH+ of 35850 with corresponding sinapinic (matrix) adducts occurring about 200 Da higher. A stochiometric incorporation of the test compound (I-4 and I-11) (Mw of 410 Da) produced a new mass peak which is approximately 410 Da higher (MH+ of 36260).

[18] = read-out: EGFR (wild type inhibition), EGFR wild type

T1 sequence (Q06187 whole entry): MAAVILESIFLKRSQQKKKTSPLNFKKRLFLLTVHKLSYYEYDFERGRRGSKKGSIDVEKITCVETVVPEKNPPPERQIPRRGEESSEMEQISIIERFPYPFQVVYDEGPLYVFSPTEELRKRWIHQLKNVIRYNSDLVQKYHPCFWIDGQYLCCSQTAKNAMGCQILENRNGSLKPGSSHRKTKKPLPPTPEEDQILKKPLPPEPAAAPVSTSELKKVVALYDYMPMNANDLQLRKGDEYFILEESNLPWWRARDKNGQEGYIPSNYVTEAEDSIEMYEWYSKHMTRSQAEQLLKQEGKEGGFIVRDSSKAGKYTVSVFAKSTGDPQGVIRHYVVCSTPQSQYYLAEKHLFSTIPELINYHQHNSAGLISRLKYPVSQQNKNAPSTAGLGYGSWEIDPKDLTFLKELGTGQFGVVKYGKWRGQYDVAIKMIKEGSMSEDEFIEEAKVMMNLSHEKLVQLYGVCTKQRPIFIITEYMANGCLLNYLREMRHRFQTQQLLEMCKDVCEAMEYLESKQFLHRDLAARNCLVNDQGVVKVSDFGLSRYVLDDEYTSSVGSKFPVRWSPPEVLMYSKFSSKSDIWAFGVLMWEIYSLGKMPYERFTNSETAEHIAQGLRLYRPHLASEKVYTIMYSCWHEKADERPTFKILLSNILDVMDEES
Sequence of ITK (Q08881 whole entry): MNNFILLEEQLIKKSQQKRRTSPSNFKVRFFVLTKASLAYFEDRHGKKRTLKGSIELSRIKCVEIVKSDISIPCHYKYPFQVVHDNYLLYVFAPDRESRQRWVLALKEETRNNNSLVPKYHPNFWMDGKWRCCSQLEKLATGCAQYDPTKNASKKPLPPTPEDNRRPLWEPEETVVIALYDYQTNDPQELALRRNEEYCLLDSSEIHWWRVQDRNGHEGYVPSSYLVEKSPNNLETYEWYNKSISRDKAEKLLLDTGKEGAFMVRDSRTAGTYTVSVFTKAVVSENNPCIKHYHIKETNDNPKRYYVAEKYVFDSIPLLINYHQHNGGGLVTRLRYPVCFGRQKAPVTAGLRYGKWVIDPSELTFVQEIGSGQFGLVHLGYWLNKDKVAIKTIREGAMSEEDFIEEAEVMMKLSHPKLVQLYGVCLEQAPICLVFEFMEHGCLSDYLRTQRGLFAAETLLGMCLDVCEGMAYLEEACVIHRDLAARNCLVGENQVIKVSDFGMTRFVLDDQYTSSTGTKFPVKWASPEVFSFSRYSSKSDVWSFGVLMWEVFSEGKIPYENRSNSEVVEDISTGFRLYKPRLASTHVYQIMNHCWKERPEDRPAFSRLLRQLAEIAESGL
Sequence of EGFR-T790M/L858R (P00533 25-1210 T790M/L858R): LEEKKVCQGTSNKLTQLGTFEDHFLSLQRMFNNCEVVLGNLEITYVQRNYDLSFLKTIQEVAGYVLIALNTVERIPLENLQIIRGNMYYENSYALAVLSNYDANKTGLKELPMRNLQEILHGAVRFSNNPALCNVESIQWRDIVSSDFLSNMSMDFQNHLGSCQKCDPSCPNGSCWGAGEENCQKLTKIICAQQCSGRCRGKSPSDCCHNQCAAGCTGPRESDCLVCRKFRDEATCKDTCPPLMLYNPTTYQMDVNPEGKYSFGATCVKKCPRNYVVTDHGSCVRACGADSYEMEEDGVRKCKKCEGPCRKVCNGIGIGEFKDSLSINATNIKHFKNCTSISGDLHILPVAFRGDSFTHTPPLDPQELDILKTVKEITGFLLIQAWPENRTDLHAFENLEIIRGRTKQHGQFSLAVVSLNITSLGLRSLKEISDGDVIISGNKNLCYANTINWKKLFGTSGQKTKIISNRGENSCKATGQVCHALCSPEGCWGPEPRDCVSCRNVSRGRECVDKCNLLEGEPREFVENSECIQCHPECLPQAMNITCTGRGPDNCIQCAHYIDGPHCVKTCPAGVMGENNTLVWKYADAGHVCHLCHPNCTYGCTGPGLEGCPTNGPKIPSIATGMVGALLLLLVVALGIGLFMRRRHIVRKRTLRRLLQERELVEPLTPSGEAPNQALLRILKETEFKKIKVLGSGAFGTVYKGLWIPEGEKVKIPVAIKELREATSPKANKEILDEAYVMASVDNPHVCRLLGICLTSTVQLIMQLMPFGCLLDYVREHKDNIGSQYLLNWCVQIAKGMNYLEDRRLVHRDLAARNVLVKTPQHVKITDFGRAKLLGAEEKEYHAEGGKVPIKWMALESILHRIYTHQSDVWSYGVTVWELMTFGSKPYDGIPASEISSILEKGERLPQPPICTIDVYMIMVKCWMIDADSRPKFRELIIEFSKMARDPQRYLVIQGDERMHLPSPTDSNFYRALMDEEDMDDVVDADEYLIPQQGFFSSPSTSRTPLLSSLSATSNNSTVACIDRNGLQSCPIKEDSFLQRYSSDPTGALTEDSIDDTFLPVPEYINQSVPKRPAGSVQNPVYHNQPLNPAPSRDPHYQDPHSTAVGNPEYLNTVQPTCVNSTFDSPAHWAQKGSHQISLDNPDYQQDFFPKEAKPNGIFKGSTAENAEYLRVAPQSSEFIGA
Sequence of EGFR-WT (P00533 668-1210): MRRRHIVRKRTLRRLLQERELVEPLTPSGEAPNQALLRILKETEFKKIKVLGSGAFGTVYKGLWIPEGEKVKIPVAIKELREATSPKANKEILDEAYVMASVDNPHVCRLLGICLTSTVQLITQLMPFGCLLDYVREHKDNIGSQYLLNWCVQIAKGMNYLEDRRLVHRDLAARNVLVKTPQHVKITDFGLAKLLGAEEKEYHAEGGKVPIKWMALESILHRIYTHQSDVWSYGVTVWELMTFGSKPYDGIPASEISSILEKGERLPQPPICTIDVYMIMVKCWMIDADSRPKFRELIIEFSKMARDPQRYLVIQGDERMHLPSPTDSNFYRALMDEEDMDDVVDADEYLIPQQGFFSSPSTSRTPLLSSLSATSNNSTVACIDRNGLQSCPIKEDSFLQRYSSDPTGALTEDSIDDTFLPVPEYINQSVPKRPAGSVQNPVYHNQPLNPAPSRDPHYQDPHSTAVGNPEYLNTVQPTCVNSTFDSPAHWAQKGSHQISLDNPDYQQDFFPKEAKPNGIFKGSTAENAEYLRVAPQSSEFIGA
Sequence of EGFR T790M (P00533 25-1210 T790M): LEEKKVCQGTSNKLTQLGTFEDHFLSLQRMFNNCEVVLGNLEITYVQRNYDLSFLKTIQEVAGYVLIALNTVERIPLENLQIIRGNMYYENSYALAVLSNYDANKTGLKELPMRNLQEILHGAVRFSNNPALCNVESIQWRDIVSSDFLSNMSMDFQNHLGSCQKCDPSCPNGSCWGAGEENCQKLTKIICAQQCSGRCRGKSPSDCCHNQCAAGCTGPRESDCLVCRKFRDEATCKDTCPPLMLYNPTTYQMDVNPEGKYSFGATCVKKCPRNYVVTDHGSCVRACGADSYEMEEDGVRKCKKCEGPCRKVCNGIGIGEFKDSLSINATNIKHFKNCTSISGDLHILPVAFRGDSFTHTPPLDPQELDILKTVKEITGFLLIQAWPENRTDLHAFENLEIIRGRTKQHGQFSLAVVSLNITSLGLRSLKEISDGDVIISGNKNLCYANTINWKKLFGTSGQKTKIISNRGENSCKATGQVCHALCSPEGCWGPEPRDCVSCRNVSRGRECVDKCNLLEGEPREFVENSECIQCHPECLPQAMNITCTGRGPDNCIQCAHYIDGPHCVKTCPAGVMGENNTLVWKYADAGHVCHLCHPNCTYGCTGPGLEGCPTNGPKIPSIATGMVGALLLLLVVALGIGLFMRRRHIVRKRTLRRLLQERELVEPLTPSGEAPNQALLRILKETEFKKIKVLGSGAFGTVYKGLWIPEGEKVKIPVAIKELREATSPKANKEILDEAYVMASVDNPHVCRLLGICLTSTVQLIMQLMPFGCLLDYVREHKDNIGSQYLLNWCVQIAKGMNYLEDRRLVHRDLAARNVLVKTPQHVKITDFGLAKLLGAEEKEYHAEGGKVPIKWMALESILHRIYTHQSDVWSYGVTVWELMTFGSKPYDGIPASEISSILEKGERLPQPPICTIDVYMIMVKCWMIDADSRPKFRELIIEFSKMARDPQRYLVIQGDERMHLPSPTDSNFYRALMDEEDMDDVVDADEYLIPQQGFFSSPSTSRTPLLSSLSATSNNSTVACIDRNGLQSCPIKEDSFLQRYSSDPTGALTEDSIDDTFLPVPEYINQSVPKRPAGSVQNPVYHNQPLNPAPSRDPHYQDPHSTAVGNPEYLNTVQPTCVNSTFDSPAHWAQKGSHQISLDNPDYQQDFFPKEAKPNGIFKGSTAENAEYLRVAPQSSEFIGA
Sequence of Erbb4 kinase domain (Q15303 718-985): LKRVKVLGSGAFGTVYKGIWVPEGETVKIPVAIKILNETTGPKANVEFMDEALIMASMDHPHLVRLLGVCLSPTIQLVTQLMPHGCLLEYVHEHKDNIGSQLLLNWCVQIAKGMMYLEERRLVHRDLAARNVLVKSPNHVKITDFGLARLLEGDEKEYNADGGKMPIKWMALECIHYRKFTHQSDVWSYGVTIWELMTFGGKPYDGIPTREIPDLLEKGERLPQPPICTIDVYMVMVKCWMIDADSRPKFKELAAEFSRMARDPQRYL

IC50 [3] [nM] | covalent modification of BTK (mass spectrometry) [4] | IC50 [5] [nM] | IC50 [6] [nM] | concentration at which at least 50% of BTK is occupied [7] | IC50 [8] [nM] | IC50 [10] [nM] | >50% occupancy (concentration at which >50% of BTK is occupied) [12] | >90% occupancy (concentration at which >90% of BTK is occupied) [12] | IC50 [3, 18] [nM] | SMILES | % Inhibition IgG3 (1:100) [2] [%] | % Inhibition IgM (1:1600) [2] [%] | other results
10 to 100 |  | < 10 | 100 to 1000 |  | 100 to 1000 | 10 to 100 |  |  |  | C=CC(=O)Nc1ccc(C)c(Nc2nccc(-c3cccnc3)n2)c1 [Compound I-56, N-(4-methyl-3-(4-(pyridin-3-yl)pyrimidin-2-ylamino)phenyl) acrylamide] |  |  | IC50 [14]: 2230 nM; IC50 [15]: 2170 nM
 | completely modify |  | 10 to 100 | greater than 10 nM |  |  | A (greater than 1 nM) | C (greater than 50 nM) | < 10 | C=CC(=O)Nc1cccc(Nc2nc(Nc3ccc(OCCOC)cc3)ncc2F)c1 [Compound I-182, N-(3-(5-fluoro-2-(4-(2-methoxyethoxy)phenylamino)pyrimidin-4-ylamino)phenyl)acrylamide] | 40 | 25 | 

Further lines, the compound ahead of its results:

SMILES | IC50 [3] [nM] | covalent modification of BTK (mass spectrometry) [4] | IC50 [5] [nM] | IC50 [6] [nM] | concentration at which at least 50% of BTK is occupied [7] | IC50 [8] [nM] | IC50 [10] [nM] | >50% occupancy (concentration at which >50% of BTK is occupied) [12] | >90% occupancy (concentration at which >90% of BTK is occupied) [12] | IC50 [3, 18] [nM] | % Inhibition IgG3 (1:100) [2] [%] | % Inhibition IgM (1:1600) [2] [%] | other results
C=CC(=O)Nc1cccc(Nc2nc(Nc3ccc(OCCOC)c(F)c3)ncc2F)c1 [Compound I-96, N-(3-(2-(3-fluoro-4-(2-methoxyethoxy)phenylamino)-5-fluoropyrimidin-4-ylamino)phenyl)acrylamide] | 10 to 100 | completely modify | < 10 | 10 to 100 | greater than 10 nM | < 10 | < 10 | A (greater than 1 nM) | B (greater than 10 nM) |  | 37.2 | 43 | concentration at which at least 50% of BTK is occupied [1]: greater than 10 nM; IC50 [9]: < 10 nM; % inhibition ankle swelling [11]: 82.8%
CCC(=O)Nc1cccc(Nc2nc(Nc3ccccc3)ncc2C)c1 [I^R-7, N-(3-(5-methyl-2-(phenylamino)pyrimidin-4-ylamino)phenyl) propionamide] | 1000 to 10000 |  | 1000 to 10000 |  |  | 100 to 1000 |  |  |  |  |  |  | biochemical activity against BTK [8]: biochemically inactive; activity in the naïve B cell proliferation assay [13]: not active
Cc1cnc(Nc2cccc(S(N)(=O)=O)c2)nc1Nc1ccc2c(c1)CCN(C(=O)CCl)C2 [Compound I-11, 3-(4-(2-(2-chloroacetyl)-1,2,3,4-tetrahydroisoquinolin-6-ylamino)-5-methylpyrimidin-2-ylamino)benzenesulfonamide] |  |  | < 10 |  |  | < 10 |  |  |  | < 10 |  |  | covalent modification of JAK3 (Cys909, peptide LVMEYLPSGCLR) by mass spectrometry [16]: measurable modification; covalent modification of ErbB4 (mass spectrometry) [17]: covalent modification
